Measurements: publication PMC8749556, “Functional Characterization of Melanocortin-3 Receptor in a Hibernating Cavefish Onychostoma macrolepis” (Animals : an Open Access Journal from MDPI, 2021)
“Also recorded” adds a separate entry of the source.

Experiments:
[1] = test system: Mc3r of spiny dogfish; conditions: ref [3]; cited from earlier work
[2] = test system: Mc3r of channel catfish; conditions: ref [12]; cited from earlier work
[3] = biological target: omMc3r; assay: cAMP signaling, CRE luciferase reporter (pGL4.29) assay; type: cell-based, Onychostoma macrolepis; conditions: pGL4.29 (CRE) luciferase reporter
Description: (§1) In order to test whether omMc3r can be activated by ligands in vitro, we sub-cloned the coding region of omMc3r into pcDNA3.1 (+) vector (Invitrogen, Carlsbad, CA, USA) for subsequent transfection of cells. The constructed vector was further verified by sequencing before use.
(§2) Human embryonic kidney (HEK293T) cells were cultured in Dulbecco modified Eagle’s medium (DMEM, Invitrogen, Carlsbad, CA, USA) supplemented with 10% fetal bovine serum (FBS, Biological Industries, Kibbutz Beit Haemek, Israel) and placed in a humid environment containing 5% CO2 at 37 °C. Cells were passaged every 2 days.
(§3) This study employed the luciferase reporter system to examine whether the four ligands can activate downstream signals through omMc3r. The luciferase reporter vector pGL4.29 and pGL4.33 of Promega (Madison, WI, USA) contain cAMP respose element (CRE) and serum response element (SRE) in their promoter regions, which can monitor the activation of cAMP and MAPK/ERK signaling pathways, respectively. The brief operating procedure was as follows: the HEK293T cells were passaged to a 6-well plate 24 h before transfection. […] An Infinite F200 microplate reader (Tecan, Männedorf, Switzerland) was used to measure the luciferase activities. […]

[4] = biological target: omMc3r; assay: MAPK/ERK (ERK1/2) signaling, SRE luciferase reporter (pGL4.33) assay; type: cell-based, Onychostoma macrolepis
Description: as §1, §2, §3

[5] = test system: Human MC3R; conditions: ref [3]; cited from earlier work

adrenocorticotropin [ACTH]
ligand affinity of spiny dogfish Mc3r (in words) [1]: highest affinity
ligand affinity of channel catfish Mc3r (in words) [2]: highest affinity

β-melanocyte-stimulating hormone [β-MSH]
EC50 ([3]; HEK293T cells transiently transfected with omMc3r plasmid, ligand 6 h in serum-free DMEM, fold change vs serum-free DMEM, nonlinear regression, mean ± SEM (n = 3, figure legend: mean (SD) of three independent experiments), read-out: EC50, cAMP Response): 0.27 ± 0.00495 µM
activation of cAMP signaling through omMc3r (in words) ([3]; HEK293T cells, ligand 6 h): can all activate the cAMP and MAPK/ERK signaling pathway; also recorded: can activate cAMP and MAPK/ERK signaling pathways in a dose-dependent manner; also recorded: could potently activate the Gαs-cAMP and MAPK/ERK signaling pathway through omMc3r; also recorded: could activate cAMP and the MAPK/ERK signaling through omMc3r with different degrees of potency
EC50 ([4]; HEK293T cells co-transfected with omMc3r plasmid and pGL4.33 (SRE) luciferase reporter, ligand 6 h in serum-free DMEM, fold change vs serum-free DMEM, nonlinear regression, mean ± SEM (n = 3, figure legend: mean (SD) of three independent experiments), read-out: EC50, ERK1/2 Response): 4.85 ± 0.0107 µM
activation of MAPK/ERK signaling through omMc3r (in words) ([4]; HEK293T cells, pGL4.33 (SRE) luciferase reporter, ligand 6 h): can all activate the cAMP and MAPK/ERK signaling pathway; also recorded: can activate cAMP and MAPK/ERK signaling pathways in a dose-dependent manner; also recorded: could potently activate the Gαs-cAMP and MAPK/ERK signaling pathway through omMc3r; also recorded: could activate cAMP and the MAPK/ERK signaling through omMc3r with different degrees of potency

γ-melanocyte-stimulating hormone [γ-MSH]
ligand preference of human MC3R (in words) [5]: unique preference
